The structures appear in SMILES notation. Where two headings read alike, the source gives them in different places.

What all share (format): cell-based
In experiment [1] the target is T1, GATA4 transcriptional activity (Mus musculus, UniProt Q08369).
T1 construct: expressed in transfected cells; host or cells: COS-1
Kind of experiment: GATA4 luciferase reporter assay (tandem GATA-site reporter, COS-1 cells). The procedure:
(§1) To screen compounds for the GATA4–NKX2-5 interaction, we have developed a luciferase reporter assay based on their property to activate gene transcription synergistically through the NKX2-5 binding site on DNA.[28] In this assay, we transfected mammalian COS-1 cells with protein expression vectors for GATA4 and NKX2-5 proteins together with artificial luciferase reporter vector containing three high affinity binding sites for NKX2-5 (NKE). […] All 257 compounds were tested in two concentrations, 3 and 10 μM. Compounds either inhibited, enhanced, or had no effect on the GATA4–NKX2-5 transcriptional synergy. To investigate the selectivity of the active compounds, we tested their effects on NKX2-5 transcriptional activity by using the same luciferase reporter vector as in transcriptional synergy assay with three NKE sites (Figure 3B). Furthermore, we used GATA luciferase reporter assay to examine if compounds have an effect on GATA4 transcriptional activity. In this assay, we cotransfected the cells with a GATA4 protein expression vector and a reporter vector with tandem GATA4 binding sites (Figure 3C). Previously we have reported that compound 1 inhibited the GATA4–NKX2-5 transcriptional synergy at micromolar concentrations (IC50 = 3 μM).[29]
(§2) The plasmids expressing mouse GATA4 protein, pMT2-GATA4, and empty pMT2 were gifts from D. B. Wilson (Department of Pediatrics, St. Louis Children’s Hospital, St. Louis, MO).[44] The plasmids expressing mouse NKX2-5 protein, pMT2-NKX2-5, have been described earlier.[28] The luciferase reporter plasmid used in GATA4–NKX2-5 transcriptional synergy assay and NKX transcriptional assay, pGL3-3xHA, contains three high affinity binding sites for NKX2-5.[28] The luciferase reporter plasmid used in GATA transcriptional assay, NP-112, contains tandem GATA-sites and minimal promoter of rat brain natriuretic peptide (BNP) gene.[45] The pGL3-BNP luciferase reporter containing −534/+4 bp rat BNP proximal promoter described previously was used in hypertrophy assay.[46]
(§3) The primary screening assay of compounds’ effect on GATA4–NKX2-5 transcriptional synergy and COS-1 cell culturing has been described earlier.[33] […] (Kinnunen et al., unpublished observation). Briefly, COS-1 cells were seeded at 14 000 cells/well in Isoplate-96 microplates (PerkinElmer, Turku, Finland) and grown overnight. The cells were transfected with the luciferase reporter plasmid pGL3-3xHA 100 ng/well and equal amounts of expression plasmids pMT2-GATA4 and pMT2-NKX2-5 total 50 ng/well. To verify the synergistic effect, the cells were transfected with pMT2-GATA4 or pMT2-NKX2-5 25 ng/well, and the total DNA concentration was adjusted to 50 ng/well with empty pMT2 plasmid. In NKX2-5 and GATA4 luciferase reporter assays, the cells were transfected with reporter plasmid pGL3-3xHA or NP-112 (100 ng/well) and expression plasmid pMT2-NKX2-5 or pMT2-GATA4 (25 ng/well). The ratio of DNA/transfection reagent (Fugene 6, Promega) was 1:3 in all assays. The transfections were performed in serum and antibiotics free media for 6 h. The cells were treated with compounds or vehicle (0.1% DMSO) for 24 h, and the luminescence was measured using neolite Reporter Gene Assay System (PerkinElmer, Turku, Finland) and Victor2 plate reader (PerkinElmer, Turku, Finland).
(§4) Raw luciferase data were analyzed in Excel, and clear outliers were removed from triplicates by using the Grubb’s test. Data analysis was performed using R.[49] The luciferase data were first normalized on the basis of the combined mean value of controls. For data visualization and creation of figures, the following R packages were used: ggplot2, cowplot, RColorBrewer, and pheatmap. The heatmaps of the toxicity data were produced with GraphPad Prism 7.00 (GraphPad Software, La Jolla, CA). Statistical significance of luciferase reporter assay data was evaluated by randomized block analysis of variance followed by Dunnett’s post hoc test. […]

The target of experiment [2] is T2, GATA4–NKX2-5 transcriptional synergy (Mus musculus, UniProt P42582+Q08369).
T2 construct: expressed in transfected cells; host or cells: COS-1
T2 sequence (Q08369 whole entry): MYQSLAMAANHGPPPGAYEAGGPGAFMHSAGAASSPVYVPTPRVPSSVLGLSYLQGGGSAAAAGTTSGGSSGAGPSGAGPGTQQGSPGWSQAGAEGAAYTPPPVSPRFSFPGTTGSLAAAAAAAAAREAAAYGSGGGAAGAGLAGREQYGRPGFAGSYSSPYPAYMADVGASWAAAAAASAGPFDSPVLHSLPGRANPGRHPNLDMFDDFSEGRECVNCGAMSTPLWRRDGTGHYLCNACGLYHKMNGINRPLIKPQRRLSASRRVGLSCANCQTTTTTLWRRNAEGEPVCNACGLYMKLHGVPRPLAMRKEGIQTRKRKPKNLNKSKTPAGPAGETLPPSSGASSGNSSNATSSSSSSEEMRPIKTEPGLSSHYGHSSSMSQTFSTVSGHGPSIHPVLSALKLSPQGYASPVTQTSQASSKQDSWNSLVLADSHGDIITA
T2 sequence (P42582 whole entry): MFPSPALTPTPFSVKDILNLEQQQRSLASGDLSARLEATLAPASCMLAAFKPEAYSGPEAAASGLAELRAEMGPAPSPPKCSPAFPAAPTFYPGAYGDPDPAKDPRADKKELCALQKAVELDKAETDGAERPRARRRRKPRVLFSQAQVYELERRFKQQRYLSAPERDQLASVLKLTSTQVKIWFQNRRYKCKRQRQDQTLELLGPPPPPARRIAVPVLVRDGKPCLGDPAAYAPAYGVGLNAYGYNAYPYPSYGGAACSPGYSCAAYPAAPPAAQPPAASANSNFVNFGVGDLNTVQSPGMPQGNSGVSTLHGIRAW
Kind of experiment: GATA4–NKX2-5 transcriptional synergy luciferase reporter assay (3xNKE reporter, COS-1 cells).

For experiment [3], the target named is T3, NKX2-5 transcriptional activity (Mus musculus, UniProt P42582).
T3 construct: expressed in transfected cells; host or cells: COS-1
T3 sequence (P42582 whole entry): as above
The experiment can be described thus: NKX2-5 luciferase reporter assay (3xNKE reporter, COS-1 cells). The conditions noted are these: for activity at 3 µM: read-out: NKX.3µM; for activity at 10 µM: read-out: NKX.10µM. As to the method: as §1, §2, §3, §4

Where [4] appears, read: COS-1, compound at 3 µM, luciferase reporter activity, % of control.
The mark [5] stands for this setting: 3 µM compound, GATA4 luciferase reporter, COS-1 cells.
Setting [6] is: 3 µM compound, GATA4–NKX2-5 transcriptional synergy reporter, COS-1 cells.
Setting [7] is: 10 µM compound, GATA4–NKX2-5 transcriptional synergy reporter, COS-1 cells.
Where [8] appears, read: 3 µM compound, NKX2-5 luciferase reporter, COS-1 cells.
The mark [9] stands for this setting: 10 µM compound, NKX2-5 luciferase reporter, COS-1 cells.
[10] abbreviates: COS-1, compound 3 µM, luciferase reporter activity, spread in separate STDEV column.
[11] abbreviates: COS-1, compound 10 µM, luciferase reporter activity, spread in separate STDEV column.
Setting [12] is: COS-1, 3 µM, luciferase reporter activity, % of control.
Setting [13] is: COS-1, GATA4 luciferase reporter assay, compound at 10 µM.
The mark [14] stands for this setting: COS-1, GATA4-NKX2-5 transcriptional synergy luciferase reporter assay, compound at 3 µM.
Where [15] appears, read: COS-1, GATA4-NKX2-5 transcriptional synergy luciferase reporter assay, compound at 10 µM.
Setting [16] is: COS-1, NKX2-5 luciferase reporter assay, compound at 3 µM.
Where [17] appears, read: COS-1, NKX2-5 luciferase reporter assay, compound at 10 µM.
The mark [18] stands for this setting: 10 µM compound, GATA4 luciferase reporter, COS-1 cells.
Where [19] appears, read: COS-1, 10 µM, luciferase reporter activity, % of control.

T1 sequence (Q08369 whole entry): as the sequence (Q08369 whole entry) above

For `CCN(CC)c1ccc(NC(=O)c2c(-c3ccccc3Cl)noc2C)cc1` [Compound 39k], in experiment [1] (10 µM), the “effect on GATA4 transcriptional activity (in words)” value was “slightly increased”. The results for the activity at 3 µM in experiment [1] (setting [4]), in experiment [2] (setting [4]) and in experiment [3] (setting [4]) were 86.1%, 107% and 157%, respectively. Further, the activity at 10 µM in experiment [1] (COS-1, compound at 10 µM, luciferase reporter activity, % of control) stood at 112%. In experiment [3], the “effect on NKX2-5 transcriptional activity (in words)” value is “did not affect”.

Regarding `CCN(CC)c1ccc(NC(=O)c2c(-c3ccoc3)noc2C)cc1` [Compound 39n], the activity at 3 µM amounted to 108% in experiment [1] (setting [5]), 119% in experiment [2] (setting [6]) and 122% in experiment [3] (setting [8]). Moreover, the values for the activity at 10 µM in experiment [2] (setting [7]) and in experiment [3] (setting [9]) were 105% and 106%, respectively.

`CCN(CC)c1ccc(NC(=O)c2c(-c3cc(C)on3)noc2C)cc1` [Compound 39o]: the values for the activity at 3 µM in experiment [1] (setting [10]), in experiment [2] (setting [10]) and in experiment [3] (setting [10]) were 89.2%, 97.1% and 101%, respectively. Further, the activity at 10 µM in experiment [1] (setting [11]) worked out at 101%; in experiment [2] (setting [11]) it was 102%.

With `CCN(CC)c1ccc(NC(=O)c2c(-c3ccc(C)s3)noc2C)cc1` [Compound 39p], the activity at 3 µM came out at 85.9% in experiment [1] (setting [10]) and 83.8% in experiment [3] (setting [10]). For the same compound, the activity at 10 µM in experiment [2] (setting [11]) was determined as 102%.

In the case of `CCN(CC)c1ccc(NC(=O)c2c(C)nc3ccccn23)cc1` [Compound 47ab], the activity at 3 µM in experiment [1] (setting [12]) came to 127%; in experiment [2] (setting [12]), 83.4%; in experiment [3] (setting [12]) it was 106%.

Regarding `CCN(CC)c1ccc(NC(=O)c2cc(C)oc2-c2cc(C)on2)cc1` [Compound 47h], the activity at 3 µM in experiment [1] (setting [10]) worked out at 134%; in experiment [2] (setting [10]), 118%; in experiment [3] (setting [10]), 114%. Also, the activity at 10 µM stood at 143% in experiment [1] (setting [11]), 104% in experiment [2] (setting [11]) and 106% in experiment [3] (setting [11]).

Consider `CCN(CC)c1ccc(NC(=O)c2cc(C)sc2-c2cc(C)on2)cc1` [Compound 47l], for which the activity at 3 µM in experiment [1] (setting [10]) amounted to 119%; in experiment [2] (setting [10]), 105%. Besides, in experiment [3], the “effect on NKX2-5 transcriptional activity (in words)” value is recorded as “did not affect”.

Turning to `CC(C)c1ccc(NC(=O)c2noc3c2CCc2sccc2-3)cc1` [Compound 66], the activity at 10 µM in experiment [1] (setting [13]) is 124%; in experiment [2] (setting [15]), 128%; in experiment [3] (setting [17]), 106%. Besides, the values for the activity at 3 µM in experiment [2] (setting [14]) and in experiment [3] (setting [16]) were 132% and 122%, respectively.

For `CCN(c1ccc(NC(=O)c2c(C)noc2-c2cc(C)on2)cc1)C(C)C` [Compound 74], the activity at 3 µM in experiment [1] (setting [5]) worked out at 103%; in experiment [3] (setting [8]), 85.2%. Further, the activity at 10 µM in experiment [1] (setting [18]) is 125%; in experiment [2] (setting [7]), 96.6%; in experiment [3] (setting [9]), 88.8%.

Take `CN(C)c1ccc(/N=C/c2c[nH]nc2-c2ccc(F)cc2)cc1` [Compound 75]: the activity at 3 µM in experiment [1] (setting [12]) came out at 107%; in experiment [2] (setting [12]), 110%; in experiment [3] (setting [12]), 108%. For the same compound, the activity at 10 µM in experiment [1] (setting [19]) was 122%; in experiment [2] (setting [19]), 100%; in experiment [3] (setting [19]) it was 145%.

Turning to `Cc1onc(-c2ccccc2)c1C(=O)Nc1ccc(C(=O)OCCC#N)cc1` [Compound 76], the activity at 3 µM was found to be 97.1% in experiment [1] (setting [10]), 98.7% in experiment [2] (setting [10]) and 132% in experiment [3] (setting [10]). In addition, the results for the activity at 10 µM in experiment [1] (setting [11]), in experiment [2] (setting [11]) and in experiment [3] (setting [11]) were 73.4%, 104% and 126%, respectively.

In the case of `C#CC[N+](CC)(CC)c1ccc(NC(=O)c2c(-c3ccccc3)noc2C)cc1` [Compound 77], the figures for the activity at 3 µM in experiment [1] (setting [12]), in experiment [2] (setting [12]) and in experiment [3] (setting [12]) were 101%, 84% and 97.9%, respectively. The activity at 10 µM in experiment [1] (setting [19]) is 95.3%; in experiment [2] (setting [19]), 101%; in experiment [3] (setting [19]), 117%.

Turning to `CCN(CC)c1ccc(-n2c(=O)c3c(C)onc3c3ccccc32)cc1` [Compound 78], the activity at 3 µM in experiment [1] (setting [5]) is 101%; in experiment [2] (setting [6]), 84.1%; in experiment [3] (setting [8]) it was 105%. Also, the values for the activity at 10 µM in experiment [1] (setting [18]), in experiment [2] (setting [7]) and in experiment [3] (setting [9]) were 113%, 100% and 112%, respectively. Also, in experiment [2], the “effect on GATA4–NKX2-5 transcriptional synergy (in words)” value was “no effect”.

`Cc1onc(-c2ccccc2)c1COCc1ccc2ccccc2c1` [SI48]: the activity at 3 µM was 96.5% in experiment [1] (setting [12]), 104% in experiment [2] (setting [12]) and 103% in experiment [3] (setting [12]). Also, the activity at 10 µM in experiment [1] (setting [19]) came out at 110%; in experiment [2] (setting [19]), 90.6%; in experiment [3] (setting [19]) it was 95.1%.

`COc1ccc(-c2cc(NCc3ccc(N(C)C)cc3)n[nH]2)cc1` [SI92]: the activity at 3 µM is 74.4% in experiment [1] (setting [10]), 76.3% in experiment [2] (setting [10]) and 84% in experiment [3] (setting [10]). Also, the activity at 10 µM in experiment [1] (setting [11]) was 72.4%; in experiment [2] (setting [11]), 85.4%; in experiment [3] (setting [11]), 78.3%.

In the case of `CN(C)c1ccc(CNc2cc(-c3ccccc3)nn2-c2ccccc2)cc1` [SI94], the activity at 3 µM came to 96.8% in experiment [1] (setting [10]), 69% in experiment [2] (setting [10]) and 95.3% in experiment [3] (setting [10]). In addition, the values for the activity at 10 µM in experiment [1] (setting [11]), in experiment [2] (setting [11]) and in experiment [3] (setting [11]) were 85%, 72.5% and 79%, respectively.

`Cc1onc(-c2ccccc2)c1N=Cc1ccc(N(C)C)cc1` [SI108]: the figures for the activity at 3 µM in experiment [1] (setting [12]), in experiment [2] (setting [12]) and in experiment [3] (setting [12]) were 109%, 69.3% and 99.3%, respectively. Further, the activity at 10 µM in experiment [1] (setting [19]) is 97.6%; in experiment [2] (setting [19]), 109%; in experiment [3] (setting [19]), 103%.

For `COc1cc(C(=O)Nc2cc(-c3ccncc3)n[nH]2)ccc1C` [SI123], the activity at 3 µM in experiment [1] (COS-1, GATA4 luciferase reporter assay, compound at 3 µM) was 105%; in experiment [2] (setting [14]), 93.2%; in experiment [3] (setting [16]), 106%. In addition, the activity at 10 µM in experiment [1] (setting [13]) came out at 80.9%; in experiment [2] (setting [15]) it was 72.3%; in experiment [3] (setting [17]), 90.4%.

Source of the values: paper PMC7076710, “Synthesis, Identification, and Structure–Activity Relationship Analysis of GATA4 and NKX2-5 Protein–Protein Interaction Modulators” (Journal of Medicinal Chemistry, 2019).
